In US20140357512A1, “HISTONE DEACETYLASE (HDAC) BIOMARKERS IN MULTIPLE MYELOMA” (priority 2013, published 2014):

Test system: human myeloma cell line MM.1S
Assay: SILAC acetylated-lysine peptide profiling, HDAC inhibitor vs DMSO (light/heavy ratio)
Format: cell-based
Description: An embodiment of the invention comprises utilizing the SILAC method in order to quantitate changes in protein expression between two or more populations of cells. The SILAC method is a technique based on mass spectrometry that detects differences in protein abundance among samples using non-radioactive isotopic labeling. The SILAC method is known in the art, and described in detail in Ong et al., “Stable Isotope Labeling by Amino Acids in Cell Culture, SILAC, as a Simple and Accurate Approach to Expression Proteomics”, Molecular & Cellular Proteomics, vol. 1, pp. 376-386 (2002), which is incorporated herein by reference in its entirety.
Briefly, the SILAC method involves growing two populations of cells in cell culture. The first population of cells is grown in growth media containing normal amino acids (“normal media”). The second population of cells is grown in media lacking a standard essential amino acid (such as lysine), but is then supplemented with a non-radioactive, isotopically labeled form of that essential amino acid (such as lysine labeled with ^13C atoms, rather than normal ^12C atoms), which is called “heavy media”. When the two populations of cells are each growing in the medium, they incorporate the amino acids into all of their proteins. The growth of cells maintained in the heavy media is no different from that in normal media. All peptides containing the heavy amino acids are heavier than their normal counterparts. The cells from each of the two populations of cells are lysed. The lysates from each of the two cell populations are then combined. The combined cell lysates are then analyzed by mass spectrometry. Pairs of chemically identical peptides of different stable isotope composition can be differentiated in a mass spectrometer due to their difference in mass. The ratio of peak intensities in the mass spectrum for such peptide pairs reflects the abundance ratio for the two proteins.
This example describes SILAC studies that were performed to compare the effects of three different HDAC inhibitors (Compound A, Compound B, and tubastatin A) to a control on a human multiple myeloma cell line. The HDAC inhibitors were also compared amongst themselves to determine differences in their effects.
A human myeloma cell line MM.1S was grown using either ^12C (light) or ^13C (heavy) lysine containing culture medium. The “heavy” cells were treated with DMSO as the control, and the “light” cells were treated with a single HDAC inhibitor at 37° C. for 6 hours. The heavy and light cells were lysed, and the lysates were mixed in 1:1 ratio and digested with the protease trypsin. The acetylated lysine containing peptides (due to the action of the HDAC inhibitor) in the digested peptide pool were captured by a non-specific anti-acetylated lysine antibody cocktail (the antibodies identify both light and heavy acetylated peptides), and subjected to mass spectrometry analysis in order to identify thousands of individual peptides.
Thousands of peptides were identified in pairs (^12C and ^13C) due to their known mass differences. The amino acid sequence and quantitative ratio (Light/Heavy) of a given peptide in two differentially treated cell lysates were then determined and annotated with their possible protein (gene) sources.
As stated above, three HDAC inhibitors (Compound A, Compound B, and Tubastatin A) were used. Thus, the SILAC method was performed three times, with a different HDAC inhibitor compared to a control each time. Accordingly, there are three pairs of quantitative data in the table below, i.e., Compound A:DMSO, Compound B:DMSO, and Tubastatin A:DMSO. A cut-off of 1.30 fold of change (increase or decrease) was then used to determine “changed” or “+” in the table, and any peptides with a fold of change less than 1.3 fold were determined to be “unchanged” or “0” in the table. Those peptides that were not identified were marked as “NA” in the table. […]

## CN1CCc2c(c3ccccc3n2Cc2ccc(C(=O)NO)cc2)C1 [Tub A]
D-beta-hydroxybutyrate dehydrogenase mitochondrial [280], gene BDH1, inhibitor:DMSO
  light to heavy ratio (L/H ratio) of acetylated peptide YFDEK(ac)IAK (SEQ ID NO: 563): 0.00 log 2
DAAGSGDK(ac)PGADTGR (SEQ ID NO: 185), 39S ribosomal protein L53 mitochondrial [105], MRPL53
  light to heavy ratio (L/H ratio) of acetylated peptide, log 2 scale: 0.38
DAISGIGTDEK(ac)CLIEILASR (SEQ ID NO: 128), Annexin A6 [113], ANXA6
  light to heavy ratio (L/H ratio) of acetylated peptide, log 2 scale: 0.67
DAZAP1 [59], log 2 scale, drug vs DMSO
  L/H ratio of acetylated peptide FK(ac)DPNCVGTVLASR (SEQ ID NO: 30): −0.51
DCDHADEQK(ac)CYSCGEFGHIQK (SEQ ID NO: 145), Isoform 1 of Cellular nucleic acid-binding protein [118], CNBP
  light to heavy ratio (L/H ratio) of acetylated peptide, log 2 scale: −0.38
DDOST [189], log 2 scale, drug vs DMSO
  L/H ratio of acetylated peptide APTIVGK(ac)SSLNPILFR (SEQ ID NO: 31): −0.51
DDX5 [40], log 2 scale, drug vs DMSO
  L/H ratio of acetylated peptide FGNPGEK(ac)LVK (SEQ ID NO: 34): 0.45
DDX5 [388], log 2 scale, drug vs DMSO
  L/H ratio of acetylated peptide DWVLNEFK(ac)HGK (SEQ ID NO: 33): −0.41
DDX17 [132], log 2 scale, drug vs DMSO
  L/H ratio of acetylated peptide FEK(ac)NFYVEHPEVAR (SEQ ID NO: 32): −0.42
DELGDYLK(ac)PK (SEQ ID NO: 184), 39S ribosomal protein L46 mitochondrial [265], MRPL46
  light to heavy ratio (L/H ratio) of acetylated peptide, log 2 scale: −0.96
DHPLPEVAHVK(ac)HLSASQK (SEQ ID NO: 381), Cytochrome c oxidase subunit 4 isoform 1 mitochondrial [53], COX4I1
  L/H ratio of acetylated peptide: 0.00 log 2
DK(ac)TQYIFNNMVLK (SEQ ID NO: 182), Alpha-mannosidase 2 [191], MAN2A1
  light to heavy ratio (L/H ratio) of acetylated peptide, log 2 scale: −0.45
DLAT [466], log 2 scale, drug vs DMSO
  L/H ratio of acetylated peptide ELNK(ac)ILEGR (SEQ ID NO: 2): 0.45
DLEK(ac)WQNNLLPSR (SEQ ID NO: 211), 40S ribosomal protein 515a [88], RPS15A
  light to heavy ratio (L/H ratio) of acetylated peptide, log 2 scale: −0.46
DLMTDLK(ac)SEISGDLAR (SEQ ID NO: 129), Annexin A6 [418], ANXA6
  light to heavy ratio (L/H ratio) of acetylated peptide, log 2 scale: 0.42
DNAJB11 [247], log 2 scale, drug vs DMSO
  L/H ratio of acetylated peptide VVK(ac)HPIFER (SEQ ID NO: 35): −0.91
DSGNK(ac)PPGLLPR (SEQ ID NO: 160), Isoform 1 of Glutathione S-transferase kappa 1 [54], GSTK1
  light to heavy ratio (L/H ratio) of acetylated peptide, log 2 scale: 0.47
DVK(ac)FGADAR (SEQ ID NO: 173), 60 kDa heat shock protein mitochondrial [31], HSPD1
  light to heavy ratio (L/H ratio) of acetylated peptide, log 2 scale: −0.66
DYNC1H1 [4283], log 2 scale, drug vs DMSO
  L/H ratio of acetylated peptide SFDSEFK(ac)LACK (SEQ ID NO: 8): 0.44
Dihydrolipoyl dehydrogenase mitochondrial [122], gene DLD, inhibitor:DMSO
  light to heavy ratio (L/H ratio) of acetylated peptide LNLDK(ac)MMEQK (SEQ ID NO: 603): 0.00 log 2
Dolichyl-diphosphooligosaccharide--protein glycosyltransferase subunit 1 precursor [626], RPN1, drug:DMSO
  light to heavy ratio (L/H ratio) of acetylated peptide DTYIENEK(ac)LISGK (SEQ ID NO: 352): 0.00 log 2
Dynein light chain 1 cytoplasmic [36], gene DYNLL1, inhibitor:DMSO
  light to heavy ratio (L/H ratio) of acetylated peptide YNIEK(ac)DIAAHIK (SEQ ID NO: 553): 0.00 log 2
Dynein light chain 2 cytoplasmic [36], DYNLL2, drug:DMSO
  light to heavy ratio (L/H ratio) of acetylated peptide YNIEK(ac)DIAAYIK (SEQ ID NO: 331): 0.00 log 2
EAALEPSMEK(ac)IFK (SEQ ID NO: 157), cDNA FLJ59630 highly similar to Growth hormone-inducible transmembrane protein [76], GHITM
  light to heavy ratio (L/H ratio) of acetylated peptide, log 2 scale: −0.68
EDQK(ac)PVMDDQR (SEQ ID NO: 141), Isoform 1 of HLA class I histocompatibility antigen gamma chain [14], CD74
  light to heavy ratio (L/H ratio) of acetylated peptide, log 2 scale: −0.79
EP300 [1558:1560], log 2 scale, drug vs DMSO
  L/H ratio of acetylated peptide TSK(ac)NK(ac)SSLSR (SEQ ID NO: 14): 0.42
EQEHMINWVEK(ac)HVVQSISTQQEK (SEQ ID NO: 132), ATP synthase subunit b mitochondrial [221], ATP5F1
  light to heavy ratio (L/H ratio) of acetylated peptide, log 2 scale: 0.77
EVHK(ac)QVVESAYEVIK (SEQ ID NO: 181), Isoform 1 of L-lactate dehydrogenase A chain [232], LDHA
  light to heavy ratio (L/H ratio) of acetylated peptide, log 2 scale: −0.67
EVQTNDLK(ac)EVVNK (SEQ ID NO: 223), 40S ribosomal protein S3a [182], SNORD73A, RPS3A
  light to heavy ratio (L/H ratio) of acetylated peptide, log 2 scale: −0.60
Elongation factor G 2 mitochondrial precursor [265], gene GFM2, inhibitor:DMSO
  light to heavy ratio (L/H ratio) of acetylated peptide TFK(ac)GVVDVVMK (SEQ ID NO: 550): 0.00 log 2
Endoplasmin [410], HSP90B1, drug:DMSO
  light to heavy ratio (L/H ratio) of acetylated peptide KSDYIK(ac)LYVR (SEQ ID NO: 315): −0.70 log 2
Endoplasmin[ 142], HSP90B1, drug:DMSO
  light to heavy ratio (L/H ratio) of acetylated peptide EK(ac)NLLHVTDTGVGMTR (SEQ ID NO: 314): −0.84 log 2
Endoplasmin[ 356], HSP90B1, drug:DMSO
  light to heavy ratio (L/H ratio) of acetylated peptide EVEEDEYK(ac)AFYK (SEQ ID NO: 261): −0.89 log 2
Eukaryotic initiation factor 4A-I [238], gene EIF4A1, inhibitor:DMSO
  light to heavy ratio (L/H ratio) of acetylated peptide K(ac)EELTLEGIR (SEQ ID NO: 510): 0.00 log 2
Eukaryotic translation initiation factor 3 subunit A [68], gene EIF3A, inhibitor:DMSO
  light to heavy ratio (L/H ratio) of acetylated peptide SHLAK(ac)EGLYQYK (SEQ ID NO: 533): 0.00 log 2
FEK(ac)EQQQLNWK (SEQ ID NO: 179), Isoform Long of Integrin beta-7 [763], ITGB7
  light to heavy ratio (L/H ratio) of acetylated peptide, log 2 scale: −0.47
FFTVK(ac)LPVALDPGAK (SEQ ID NO: 209), Dolichyl-diphosphooligosaccharide--protein glycosyltransferase subunit 1 precursor [155], RPN1
  light to heavy ratio (L/H ratio) of acetylated peptide, log 2 scale: −0.39
FGIAAK(ac)YQLDPTASISAK (SEQ ID NO: 479), Isoform 2 of Voltage-dependent anion-selective channel protein 2 [224], VDAC2
  L/H ratio of acetylated peptide: 0.00 log 2
FLNAENAQK(ac)FK (SEQ ID NO: 200), Ran-specific GTPase-activating protein [150], RANBP1
  light to heavy ratio (L/H ratio) of acetylated peptide, log 2 scale: −0.68
FLTK(ac)GDNNAVDDR (SEQ ID NO: 218), Putative signal peptidase complex catalytic subunit SEC11B [101], SEC11B
  light to heavy ratio (L/H ratio) of acetylated peptide, log 2 scale: 0.82
FNQK(ac)GEVYK (SEQ ID NO: 149), Lipoamide acyltransferase component of branched-chain alpha-keto acid dehydrogenase complex mitochondrial [435], DBT
  light to heavy ratio (L/H ratio) of acetylated peptide, log 2 scale: 0.39
FWNK(ac)FLENK (SEQ ID NO: 187), NADH dehydrogenase [ubiquinone] 1 beta subcomplex subunit 6 [49], NDUFB6
  light to heavy ratio (L/H ratio) of acetylated peptide, log 2 scale: 0.54
Flap endonuclease 1 [252], gene FEN1, inhibitor:DMSO
  light to heavy ratio (L/H ratio) of acetylated peptide AVDLIQK(ac)HK (SEQ ID NO: 546): 0.00 log 2
GANAB [48], log 2 scale, drug vs DMSO
  L/H ratio of acetylated peptide TCEESSFCK(ac)R (SEQ ID NO: 36): −0.51
